Laboratory results taken from the METLIN SMRT retention time set (Domingo-Almenara et al. 2019).

Assay: gradient 5% acetonitrile 3 min, to 50% in 2 min, to 85% in 15 min, held 3 min, 100 µL/min
Details: column: Zorbax Extend-C18 2.1 x 50 mm; eluents: water / acetonitrile, 0.1% formic acid
Procedure, shortened: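 Pure standards were analyzed in mixtures of ~100 molecules using HPLC coupled to a quadrupole time-of-flight mass spectrometer, in both positive and negative ionization mode. Separation used a Zorbax Extend-C18 column (2.1 × 50 mm, 1.8 μm) at 100 μL/min, with water and acetonitrile each containing 0.1% formic acid. Dead and dwell volumes were 40 μL and 900 μL, and data were collected over 3 months. Retention time was read from computationally picked adduct peaks, each inspected manually.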

SMILES | RP-LC retention time [s]
COc1ccc(-c2noc(C3CCCN3C(=O)c3cccc(OC)c3)n2)cc1 (stereo unspecified) | 937
Cc1ccccc1-c1noc(-c2cccn(CC(=O)N3CCCC3)c2=O)n1 | 750
Cc1nc(-c2cnccn2)n(CC(=O)Nc2ccccc2)c(=O)c1C | 704
CSCC(CO)NC(=O)/C=C/c1c(C)[nH]c(=O)[nH]c1=O (stereo unspecified) | 564
COc1ccc(CCNC(=O)CSc2cc(N3CCC(C(=O)NC4CC4)CC3)ncn2)cc1OC | 624
Cc1nn(-c2ccc(-c3noc(C4CC4)n3)cc2)cc1C(=O)Nc1ccc(F)cc1F | 773
O=C(Nc1ccccc1Cl)C(=O)c1cn(CC(=O)N2CCOCC2)c2ccccc12 | 1040
CC1CCN(S(=O)(=O)c2ccc(-c3nnc(C(=O)NCc4ccc5c(c4)OCO5)o3)cc2)CC1 | 1010
O=C(Nc1ccccc1)N1[C@H]2CC[C@@H]1c1cncnc1C2 | 651
Cc1nc(-c2noc(-c3ccncc3)n2)cn1CC(=O)Nc1cccc(Cl)c1 | 760
COCCn1c(C)cc(O)c(C(c2ccc(OC)cc2OC)N2CCCCC2)c1=O (stereo unspecified) | 688
Cc1nccn1Cc1nc(-c2cccc(F)c2)no1 | 607
CCOCCCNC(=O)Nc1ccc2c(c1)CCN2S(=O)(=O)c1ccccc1 | 803
CCOc1ccc(-c2noc(Cn3cnc4c(cnn4-c4ccccc4)c3=O)n2)cc1OC | 980
CC(C)NC(=O)c1ccc(OCC2CCN(C(=O)c3ccc(C#N)cc3)CC2)cc1 | 811
O=C(NCC1CCCO1)c1ccc(CN2CCN(Cc3ccc(F)cc3)C(=O)C2=O)cc1 (stereo unspecified) | 676
CC(C)Cn1c(=O)c2ccccc2n(Cc2nc(-c3cccc(Br)c3)no2)c1=O | 1290
O=C(N[C@@H]1CN(c2ncccn2)C[C@H]1CO)c1nccc2ccccc12 | 613

SMILES | RP-LC retention time [s]
O=C(NCc1ccsc1)C(=O)Nc1ccon1 | 665
O=S(c1cc(Cl)cc(Cl)c1O)c1cc(Cl)cc(Cl)c1O | 1160
COCCN1[C@@H]2CCN(C(=O)Nc3ccccc3F)C[C@@]2(C(=O)N2CCOCC2)CCS1(=O)=O | 676
O=C(c1ccc2nccnc2c1)N1CCC(c2nnc(C(F)(F)F)o2)CC1 | 653
Cn1cc(-c2nc(C(=O)NC3CCCCCC3)cs2)c2cccnc21 | 1040
CC1CCN(S(=O)(=O)c2ccc(-c3nnc(C(=O)NCc4ccccc4Cl)o3)cc2)CC1 | 1110
COc1ccc(OC)c(NC(=O)N2c3ccccc3CC2c2nc(C3CC3)no2)c1 (stereo unspecified) | 1110
Cc1ccccc1NC(=O)N1CCc2nc(-c3ccc(Cl)cc3)ncc2C1 | 1020
Cc1cccc(N2CCN(C(=O)C3=CCN(Cc4ccccc4)CC3)CC2)c1 | 681
Cc1ccc(C)c(NC(=O)COc2nc(C)nc3ccccc23)c1 | 754
CCc1ccc(NC(=O)CSc2ccc(N3CCCC(C(=O)NC4CC4)C3)nn2)cc1 (stereo unspecified) | 695
CCOc1ccc(S(=O)(=O)N2CCc3c(c(-c4nnc(-c5ccccc5)o4)nn3C)C2)cc1 | 996
COc1cccc(S(=O)(=O)N2CCC(c3noc(-c4ccccc4)n3)CC2)c1 | 1120
Cc1nn(CC(=O)NCCN2CCCCCC2)c(=O)c2nc(-c3ccccc3)sc12 | 657
O=C(Nc1ccc2c(c1)OCO2)c1noc2c1CCCC2 | 883
O=C(CN1CC(c2nc(-c3cccs3)no2)C1)N1CCc2ccccc21 | 605
CCOC(=O)c1noc2nc(C)nc(N3CCN(c4ccc(Cl)cc4)CC3)c12 | 1190
CC(C)c1noc(-c2ccc(-n3cnc(C(=O)N4CCOCC4)c3)nc2)n1 | 745
